Measurements as given in patent US20240116985A1, “STAPLED PEPTIDES AND METHODS THEREOF” (priority 2020, published 2024).

Molecular target: T1, full-length beta-Catenin (Uniprot ID P35222) (Homo sapiens, UniProt P35222)
T1 construct: 10 nM full-length beta-Catenin (Uniprot ID P35222)
T1 sequence (P35222 1-781): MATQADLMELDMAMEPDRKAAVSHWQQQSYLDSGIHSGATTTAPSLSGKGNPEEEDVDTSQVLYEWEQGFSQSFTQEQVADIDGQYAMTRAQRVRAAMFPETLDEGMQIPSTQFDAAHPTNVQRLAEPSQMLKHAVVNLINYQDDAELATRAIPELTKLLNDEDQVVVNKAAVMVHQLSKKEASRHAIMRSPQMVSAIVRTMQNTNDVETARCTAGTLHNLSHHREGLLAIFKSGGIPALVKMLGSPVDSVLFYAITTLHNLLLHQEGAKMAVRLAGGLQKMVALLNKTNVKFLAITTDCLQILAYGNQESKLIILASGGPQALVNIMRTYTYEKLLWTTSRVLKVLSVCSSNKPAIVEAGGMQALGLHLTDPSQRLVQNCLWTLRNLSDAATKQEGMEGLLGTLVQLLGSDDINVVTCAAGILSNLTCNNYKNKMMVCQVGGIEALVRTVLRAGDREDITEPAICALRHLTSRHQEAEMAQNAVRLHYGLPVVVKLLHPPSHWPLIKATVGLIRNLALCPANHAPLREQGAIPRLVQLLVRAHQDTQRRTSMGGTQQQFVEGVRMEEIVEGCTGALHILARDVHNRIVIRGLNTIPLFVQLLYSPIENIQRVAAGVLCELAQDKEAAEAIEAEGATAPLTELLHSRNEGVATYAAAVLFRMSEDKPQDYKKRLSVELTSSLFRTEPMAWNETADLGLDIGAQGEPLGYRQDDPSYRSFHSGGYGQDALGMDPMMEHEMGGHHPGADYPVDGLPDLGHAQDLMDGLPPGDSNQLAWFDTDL
Assay: Fluorescence polarization IC50 (beta-catenin / 5FAM-TCF4 10-53 competition)
Assay type: binding
Details: fluorescence polarization; read-out: beta-Catenin FP IC50

SMILES	IC50 [nM]
CC(=O)N1CCC[C@]12CC=CCCCC1(CCCC=CCCCOC(=O)N3CC[C@@](C(=O)N[C@@H](Cc4ccsc4)C(=O)N[C@@H](Cc4csc5ccccc45)C(=O)N[C@@H](CCC(N)=O)C(N)=O)(C3)NC(=O)[C@H](CC(N)=O)NC(=O)[C@H](Cc3ccccc3)NC(=O)[C@H](C)NC(=O)[C@H](C)NC(=O)[C@H](CC(N)=O)NC(=O)[C@H](CCC(N)=O)NC1=O)NC(=O)[C@H](CC(C)(C)C)NC(=O)[C@H](CC(=O)O)NC2=O (stereo partly drawn) [I-1560, Ac-PL3-Asp-Npg-B5-Gln-Asn-Ala-Ala-Phe-Asn-PyrS2-3Thi-BztA-Gln-NH2]	368
CC(=O)N1CCC[C@]12CC=CCCCC1(CCCC=CCCCOC(=O)N3CC[C@@](C(=O)N[C@@H](Cc4ccsc4)C(=O)N[C@@H](Cc4csc5ccccc45)C(=O)N[C@@H](CCC(N)=O)C(N)=O)(C3)NC(=O)[C@H](CC(N)=O)NC(=O)[C@H](Cc3ccccc3)NC(=O)[C@H](C)NC(=O)[C@H](C)NC(=O)[C@H](CC(N)=O)NC(=O)[C@H](CC(C)C)NC1=O)NC(=O)[C@H](CC(C)(C)C)NC(=O)[C@H](CC(=O)O)NC2=O (stereo partly drawn) [I-1563, Ac-PL3-Asp-Npg-B5-Leu-Asn-Ala-Ala-Phe-Asn-PyrS2-3Thi-BztA-Gln-NH2]	2850
CC(=O)N1CCC[C@]12CC=CCCCC1(CCCC=CCCCOC(=O)N3CC[C@@](C(=O)N[C@@H](Cc4ccsc4)C(=O)N[C@@H](Cc4csc5ccccc45)C(=O)N[C@@H](CCC(N)=O)C(N)=O)(C3)NC(=O)[C@H](CC(N)=O)NC(=O)[C@H](Cc3ccccc3)NC(=O)[C@H](C)NC(=O)[C@H](C)NC(=O)[C@H](Cc3ccc(O)cc3)NC(=O)[C@H](CC(N)=O)NC1=O)NC(=O)[C@H](CC(C)(C)C)NC(=O)[C@H](CC(=O)O)NC2=O (stereo partly drawn) [I-1569, Ac-PL3-Asp-Npg-B5-Asn-Tyr-Ala-Ala-Phe-Asn-PyrS2-3Thi-BztA-Gln-NH2]	2660
CC(=O)N1CCC[C@]12CC=CCCCC1(CCCC=CCCCOC(=O)N3CC[C@@](C(=O)N[C@@H](Cc4ccsc4)C(=O)N[C@@H](Cc4csc5ccccc45)C(=O)N[C@@H](CCC(N)=O)C(N)=O)(C3)NC(=O)[C@H](CC(N)=O)NC(=O)[C@H](Cc3ccccc3)NC(=O)[C@H](C)NC(=O)[C@H](C)NC(=O)[C@H](CC(C)C)NC(=O)[C@H](CC(N)=O)NC1=O)NC(=O)[C@H](CC(C)(C)C)NC(=O)[C@H](CC(=O)O)NC2=O (stereo partly drawn) [I-1570, Ac-PL3-Asp-Npg-B5-Asn-Leu-Ala-Ala-Phe-Asn-PyrS2-3Thi-BztA-Gln-NH2]	1340
CC(=O)N1CCC[C@]12CC=CCCCC1(CCCC=CCCCOC(=O)N3CC[C@@](C(=O)N[C@@H](Cc4ccccc4)C(=O)N[C@@H](Cc4csc5ccccc45)C(=O)N[C@@H](CCC(N)=O)C(N)=O)(C3)NC(=O)[C@H](CC(C)C)NC(=O)[C@H](Cc3ccccc3)NC(=O)[C@H](C)NC(=O)[C@H](CCCCNC(C)C)NC(=O)[C@H]([C@@H](C)O)NC(=O)[C@H](CC(=O)O)NC1=O)NC(=O)[C@H](CC(C)C)NC(=O)[C@H](CC(N)=O)NC2=O (stereo partly drawn) [I-1582, Ac-PL3-Asn-Leu-B5-Asp-Thr-iPrLys-Ala-Phe-Leu-PyrS2-Phe-BztA-Gln-NH2]	1220
CC(=O)N1CCC[C@]12CC=CCCCC1(CCCC=CCCCOC(=O)N3CC[C@@](C(=O)N[C@@H](Cc4ccccc4)C(=O)N[C@@H](Cc4csc5ccccc45)C(=O)N[C@@H](CCC(N)=O)C(N)=O)(C3)NC(=O)[C@H](CC(C)C)NC(=O)[C@H](Cc3ccccc3)NC(=O)[C@H](C)NC(=O)[C@H](CCCCNC(C)C)NC(=O)[C@H]([C@@H](C)O)NC(=O)[C@H](CC(=O)O)NC1=O)NC(=O)[C@H](CO)NC(=O)[C@H](CC(N)=O)NC2=O (stereo partly drawn) [I-1583, Ac-PL3-Asn-Ser-B5-Asp-Thr-iPrLys-Ala-Phe-Leu-PyrS2-Phe-BztA-Gln-NH2]	3420
CC(=O)N1CCC[C@]12CC=CCCCC1(CCCC=CCCCOC(=O)N3CC[C@@](C(=O)N[C@@H](Cc4ccccc4)C(=O)N[C@@H](Cc4csc5ccccc45)C(=O)N[C@@H](CCC(N)=O)C(N)=O)(C3)NC(=O)[C@H](CC(C)C)NC(=O)[C@H](Cc3ccccc3)NC(=O)[C@H](C)NC(=O)[C@H](CCCCNC(C)C)NC(=O)[C@H]([C@@H](C)O)NC(=O)[C@H](CC(=O)O)NC1=O)NC(=O)[C@H](CCCCNC(C)C)NC(=O)[C@H](CC(N)=O)NC2=O (stereo partly drawn) [I-1591, Ac-PL3-Asn-iPrLys-B5-Asp-Thr-iPrLys-Ala-Phe-Leu-PyrS2-Phe-BztA-Gln-NH2]	3110
CC(=O)N1CCC[C@]12CC=CCCCC1(CCCC=CCCCOC(=O)N3CC[C@@](C(=O)N[C@@H](Cc4ccccc4)C(=O)N[C@@H](Cc4csc5ccccc45)C(=O)N[C@@H](CCC(N)=O)C(N)=O)(C3)NC(=O)[C@H](CC(C)C)NC(=O)[C@H](CO)NC(=O)[C@H](C)NC(=O)[C@H](CCCCNC(C)C)NC(=O)[C@H]([C@@H](C)O)NC(=O)[C@H](CC(=O)O)NC1=O)NC(=O)[C@H](CC(C)(C)C)NC(=O)[C@H](CC(N)=O)NC2=O (stereo partly drawn) [I-1597, Ac-PL3-Asn-Npg-B5-Asp-Thr-iPrLys-Ala-Ser-Leu-PyrS2-Phe-BztA-Gln-NH2]	6990

The remaining compounds from weak to strong by IC50, led by results:

IC50 [nM]	SMILES
7180	CC(=O)N1CCC[C@]12CC=CCCCC1(CCCC=CCCCOC(=O)N3CC[C@@](C(=O)N[C@@H](Cc4ccsc4)C(=O)N[C@@H](Cc4csc5ccccc45)C(=O)N[C@@H](CCC(N)=O)C(N)=O)(C3)NC(=O)[C@H](CC(N)=O)NC(=O)[C@H](Cc3ccccc3)NC(=O)[C@H](C)NC(=O)[C@H](C)NC(=O)[C@H](Cc3ccc(O)cc3)NC(=O)[C@H](CC(N)=O)NC1=O)NC(=O)[C@H](CC(C)(C)C)NC(=O)[C@H](CC(=O)O)NC2=O (stereo partly drawn) [I-1568, Ac-PL3-Asp-Npg-B5-Asn-Tyr-Ala-Ala-Phe-Asn-PyrS2-3Thi-BztA-Gln-NH2]
5020	CC(=O)N1CCC[C@]12CC=CCCCC1(CCCC=CCCCOC(=O)N3CC[C@@](C(=O)N[C@@H](Cc4ccsc4)C(=O)N[C@@H](Cc4csc5ccccc45)C(=O)N[C@@H](CCC(N)=O)C(N)=O)(C3)NC(=O)[C@H](CC(N)=O)NC(=O)[C@H](Cc3ccccc3)NC(=O)[C@H](C)NC(=O)[C@H](C)NC(=O)[C@H](CC(N)=O)NC(=O)[C@H](CC(C)C)NC1=O)NC(=O)[C@H](CC(C)(C)C)NC(=O)[C@H](CC(=O)O)NC2=O (stereo partly drawn) [I-1562, Ac-PL3-Asp-Npg-B5-Leu-Asn-Ala-Ala-Phe-Asn-PyrS2-3Thi-BztA-Gln-NH2]
2850	CC(=O)N1CCC[C@]12CC=CCCCC1(CCCC=CCCCOC(=O)N3CC[C@@](C(=O)N[C@@H](Cc4ccccc4)C(=O)N[C@@H](Cc4csc5ccccc45)C(=O)N[C@@H](CCC(N)=O)C(N)=O)(C3)NC(=O)[C@H](CC(C)C)NC(=O)[C@H](Cc3ccccc3)NC(=O)[C@H](C)NC(=O)[C@H](CCCCNC(C)C)NC(=O)[C@H](Cc3cccc(C(N)=O)c3)NC(=O)[C@H](CC(=O)O)NC1=O)NC(=O)[C@H](CC(C)(C)C)NC(=O)[C@H](CC(N)=O)NC2=O (stereo partly drawn) [I-1592, Ac-PL3-Asn-Npg-B5-Asp-3cbmf-iPrLys-Ala-Phe-Leu-PyrS2-Phe-BztA-Gln-NH2]
2600	CC(=O)N1CCC[C@]12CC=CCCCC1(CCCC=CCCCOC(=O)N3CC[C@@](C(=O)N[C@@H](Cc4ccsc4)C(=O)N[C@@H](Cc4csc5ccccc45)C(=O)N[C@@H](CCC(N)=O)C(N)=O)(C3)NC(=O)[C@H](CC(N)=O)NC(=O)[C@H](Cc3ccccc3)NC(=O)[C@H](C)NC(=O)[C@H](C)NC(=O)[C@H](CC(N)=O)NC(=O)[C@H](CO)NC1=O)NC(=O)[C@H](CC(C)(C)C)NC(=O)[C@H](CC(=O)O)NC2=O (stereo partly drawn) [I-1561, Ac-PL3-Asp-Npg-B5-Ser-Asn-Ala-Ala-Phe-Asn-PyrS2-3Thi-BztA-Gln-NH2]
2440	CC(=O)N1CCC[C@]12CC=CCCCC1(CCCC=CCCCOC(=O)N3CC[C@@](C(=O)N[C@@H](Cc4ccccc4)C(=O)N[C@@H](Cc4csc5ccccc45)C(=O)N[C@@H](CCC(N)=O)C(N)=O)(C3)NC(=O)[C@H](CC(C)C)NC(=O)[C@H](Cc3ccccc3)NC(=O)[C@H](C)NC(=O)[C@H](CCCCNC(C)C)NC(=O)[C@H]([C@@H](C)O)NC(=O)[C@H](CC(=O)O)NC1=O)NC(=O)[C@H](CCC(N)=O)NC(=O)[C@H](CC(N)=O)NC2=O (stereo partly drawn) [I-1584, Ac-PL3-Asn-Gln-B5-Asp-Thr-iPrLys-Ala-Phe-Leu-PyrS2-Phe-BztA-Gln-NH2]
1430	CC(=O)N1CCC[C@]12CC=CCCCC1(CCCC=CCCCOC(=O)N3CC[C@@](C(=O)N[C@@H](Cc4ccccc4)C(=O)N[C@@H](Cc4csc5ccccc45)C(=O)N[C@@H](CCC(N)=O)C(N)=O)(C3)NC(=O)[C@H](CC(C)C)NC(=O)[C@H](Cc3ccccc3)NC(=O)[C@H](C)NC(=O)[C@H](CCCCNC(C)C)NC(=O)[C@H]([C@@H](C)O)NC(=O)[C@H](CC(=O)O)NC1=O)NC(=O)[C@H](Cc1ccccc1)NC(=O)[C@H](CC(N)=O)NC2=O (stereo partly drawn) [I-1580, Ac-PL3-Asn-Phe-B5-Asp-Thr-iPrLys-Ala-Phe-Leu-PyrS2-Phe-BztA-Gln-NH2]
79	CC(=O)N1CC2CC1C(=O)N[C@@H](CC(=O)O)C(=O)N[C@@H](CC(C)(C)C)C(=O)NC1(CCCC=CCCCOC(=O)N3CC[C@@](C(=O)N[C@@H](Cc4ccsc4)C(=O)N[C@@H](Cc4csc5ccccc45)C(=O)N[C@@H](CCC(N)=O)C(N)=O)(C3)NC(=O)[C@H](CC(N)=O)NC(=O)[C@H](Cc3ccccc3)NC(=O)[C@H](C)NC(=O)[C@H](C)NC(=O)[C@H](CC(=O)O)NC(=O)[C@H](CC(=O)O)NC1=O)CCCC=CCC(=O)O2 (stereo partly drawn) [I-1575, Ac-HypEs4-Asp-Npg-B5-Asp-Asp-Ala-Ala-Phe-Asn-PyrS2-3Thi-BztA-Gln-NH2]
